According to patent US6489297B1, “Vasoactive intestinal peptide analogs” (Dabur Research Foundation, priority 2000, dated 2002):
Where a SMILES comes first, the peptide text is derived from it. [ ]: non-standard residue; d: D form. dPhe(4-Cl) = N[C@H](Cc1ccc(Cl)cc1)C(=O)O; Ac5c = NC1(C(=O)O)CCCC1

Tests used:
Assay type in all cases: cell-based, human
Conditions in all cases: 72 hours
PA-1 (ovary) = test: MTT cytotoxicity assay, PA-1 cells
Procedure: (§1) The cytotoxic activity of synthesized peptides was tested on […] human tumor cell lines namely PA-1 (ovary), SW620 (colon) HuTu80 (duodenum), L132 (lung), U87MG (glioblastoma), KB (oral), MIAPaCa2(pancreas), A549(non small cell lung) and HT-29(colon). The tumor cells were collected at exponential growth phase and resuspended in medium (1.5×10^6 cells/ml in RPMI 1640 containing 10% FBS). 150 μl of medium was added to the wells of a 96-well tissue culture plate (Nunc, Denmark) followed by 30 μl of cell suspension. The plate was left in incubator (37° C., 5% CO2) overnight. 20 μl of the peptide (100 pM to 1 uM concentration) was added to marked wells of the 96-well plate. Each concentration was plated in triplicates. 20 μl of medium alone was added to control wells while wells without cells served as blanks. A total volume of 200 μl was ensured in each well and plate was left in incubator (37° C., 5% CO2). After 72 hours of incubation an MTT assay was performed and percentage cytotoxicity was calculated with respect to control cells. Following Tables show the maximum cytotoxicity achieved on various cell lines.

SW620 (colon) = test: MTT cytotoxicity assay, SW620 cells
Procedure: as §1

HuTu80 (duodenum) = test: MTT cytotoxicity assay, HuTu80 cells
Procedure: as §1

L132 (lung) = test: MTT cytotoxicity assay, L132 cells
Procedure: as §1

U87MG (glioblastoma) = test: MTT cytotoxicity assay, U87MG cells
Procedure: as §1

KB (oral) = test: MTT cytotoxicity assay, KB cells
Procedure: as §1

`CC[C@H](C)[C@H](NC(=O)[C@H](CO)NC(=O)[C@H](CC(N)=O)NC(=O)[C@H](CC(C)C)NC(=O)[C@H](Cc1ccc(O)cc1)NC(=O)[C@H](CCCCN)NC(=O)[C@H](CCCCN)NC(=O)[C@@H](NC(=O)[C@H](C)NC(=O)[C@H](CC(C)C)NC(=O)[C@H](CCC(N)=O)NC(=O)[C@H](CCCCN)NC(=O)[C@H](CCCNC(=N)N)NC(=O)[C@H](CC(C)C)NC(=O)[C@H](CCCNC(=N)N)NC(=O)[C@@H](NC(=O)[C@H](Cc1ccc(O)cc1)NC(=O)[C@H](CC(N)=O)NC(=O)[C@H](CC(=O)O)NC(=O)[C@@H](NC(=O)[C@@H](Cc1ccc(Cl)cc1)NC(=O)[C@@H](NC(=O)C1(NC(=O)[C@H](CC(=O)O)NC(=O)[C@H](CO)NC(=O)[C@@H](N)Cc2c[nH]cn2)CCCC1)C(C)C)[C@@H](C)O)[C@@H](C)O)C(C)C)C(=O)N[C@@H](CC(C)C)C(=O)N[C@@H](CC(N)=O)C(N)=O` [SEQ ID NO: 4] (H-HSD[Ac5c]V[dPhe(4-Cl)]TDNYTRLRKQLAVKKYLNSILN-NH2) showed a Percentage cytotoxicity (PA-1 (ovary); PA1, 100 pM) of 16.1 ± 0.0%, a Percentage cytotoxicity (PA-1 (ovary); PA1, 1 nM) of 30 ± 6.0% and a Percentage cytotoxicity (PA-1 (ovary); PA1, 10 nM) of 23 ± 3.5%. For the same molecule, the Percentage cytotoxicity (PA-1 (ovary); PA1, 100 nM) was 22.3 ± 4.5%, the Percentage cytotoxicity (PA-1 (ovary); PA1, 1 μM) was 21 ± 5.5% and the Percentage cytotoxicity (SW620 (colon); SW620, 100 pM) was 16.9 ± 5.5%. For the same molecule, the Percentage cytotoxicity (SW620 (colon); SW620, 1 nM) was 31 ± 6.5%, the Percentage cytotoxicity (SW620 (colon); SW620, 10 nM) was 28.5 ± 4.5% and the Percentage cytotoxicity (SW620 (colon); SW620, 100 nM) was 23 ± 6.7%. For the same molecule, the Percentage cytotoxicity (SW620 (colon); SW620, 1 μM) was 15 ± 4.5%, the Percentage cytotoxicity (HuTu80 (duodenum); HuTu80, 100 pM) was 11 ± 8.0% and the Percentage cytotoxicity (HuTu80 (duodenum); HuTu80, 1 nM) was 30 ± 7.0%. The Percentage cytotoxicity (HuTu80 (duodenum); HuTu80, 10 nM) was 27 ± 5.0%, the Percentage cytotoxicity (HuTu80 (duodenum); HuTu80, 100 nM) was 27 ± 7.9% and the Percentage cytotoxicity (HuTu80 (duodenum); HuTu80, 1 μM) was 15.5 ± 6.5%. For the same molecule, the Percentage cytotoxicity (L132 (lung); L132, 100 pM) was 11 ± 8.0%, the Percentage cytotoxicity (L132 (lung); L132, 1 nM) was 27 ± 4.5% and the Percentage cytotoxicity (L132 (lung); L132, 10 nM) was 30 ± 5.5%. The Percentage cytotoxicity (L132 (lung); L132, 100 nM) was 28 ± 5.5%, the Percentage cytotoxicity (L132 (lung); L132, 1 μM) was 13 ± 4.5% and the Percentage cytotoxicity (U87MG (glioblastoma); 100 pM) was 10 ± 4.6%. It also gave a Percentage cytotoxicity (U87MG (glioblastoma); 1 nM) of 15 ± 7.8%, a Percentage cytotoxicity (U87MG (glioblastoma); 10 nM) of 29 ± 6.7% and a Percentage cytotoxicity (U87MG (glioblastoma); 100 nM) of 28 ± 7.7%. The Percentage cytotoxicity (U87MG (glioblastoma); 1 μM) was 27 ± 5.5%, the Percentage cytotoxicity (KB (oral); 100 pM) was 13 ± 8.0% and the Percentage cytotoxicity (KB (oral); 1 nM) was 30 ± 7.8%. For the same molecule, the Percentage cytotoxicity (KB (oral); 10 nM) was 27 ± 7.8%, the Percentage cytotoxicity (KB (oral); 100 nM) was 26 ± 5.6% and the Percentage cytotoxicity (KB (oral); 1 μM) was 27 ± 4.3%.
